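Method: 48-hour compound exposure of cells in 96-well plates, five concentrations, linear interpolation of endpoints. TGI marks complete inhibition of growth.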
Experiments:
Experiment in all cases: NCI-60 cell line screen, 48 h
DLD-1 colon = test system: DLD-1 colon
XF 498 CNS = test system: XF 498 CNS
SF-295 CNS = test system: SF-295 CNS
EKVX NSCLC = test system: EKVX NSCLC
M19-MEL melanoma = test system: M19-MEL melanoma
RPMI-8226 leukemia = test system: RPMI-8226 leukemia
MOLT-4 leukemia = test system: MOLT-4 leukemia
HT29 colon = test system: HT29 colon
KM20L2 colon = test system: KM20L2 colon
OVCAR-4 ovarian = test system: OVCAR-4 ovarian
HOP-18 NSCLC = test system: HOP-18 NSCLC
SK-MEL-5 melanoma = test system: SK-MEL-5 melanoma
M14 melanoma = test system: M14 melanoma
HOP-62 NSCLC = test system: HOP-62 NSCLC
LXFL 529 NSCLC = test system: LXFL 529 NSCLC
UACC-62 melanoma = test system: UACC-62 melanoma
HCT-15 colon = test system: HCT-15 colon
CCRF-CEM leukemia = test system: CCRF-CEM leukemia
MALME-3M melanoma = test system: MALME-3M melanoma
IGROV1 ovarian = test system: IGROV1 ovarian
A498 renal = test system: A498 renal
UACC-257 melanoma = test system: UACC-257 melanoma
KM12 colon = test system: KM12 colon
NCI-H460 lung = test system: NCI-H460 lung
LOX IMVI melanoma = test system: LOX IMVI melanoma
DMS 273 small cell lung = test system: DMS 273 small cell lung
SNB-19 CNS = test system: SNB-19 CNS
SF-268 CNS = test system: SF-268 CNS
HL-60(TB) leukemia = test system: HL-60(TB) leukemia
CAKI-1 renal = test system: CAKI-1 renal
ACHN renal = test system: ACHN renal
OVCAR-3 ovarian = test system: OVCAR-3 ovarian
UO-31 renal = test system: UO-31 renal
NCI-H226 lung = test system: NCI-H226 lung
786-0 renal = test system: 786-0 renal
A549 NSCLC = test system: A549 NSCLC
SK-OV-3 ovarian = test system: SK-OV-3 ovarian
SK-MEL-2 melanoma = test system: SK-MEL-2 melanoma
NCI-H23 lung = test system: NCI-H23 lung
TK-10 renal = test system: TK-10 renal
COLO 205 colon = test system: COLO 205 colon
SF-539 CNS = test system: SF-539 CNS
U251 CNS = test system: U251 CNS
SW-620 colon = test system: SW-620 colon
HOP-92 NSCLC = test system: HOP-92 NSCLC
SNB-78 CNS = test system: SNB-78 CNS
SK-MEL-28 melanoma = test system: SK-MEL-28 melanoma
K-562 leukemia = test system: K-562 leukemia
NCI-H522 lung = test system: NCI-H522 lung
OVCAR-5 ovarian = test system: OVCAR-5 ovarian

CCC1C(=O)OCc2c1cc1n(c2=O)C(CC)c2c-1nc1ccccc1c2Cl (stereo not given)
TGI (DLD-1 colon): > 100 µM | TGI (XF 498 CNS): 66.5 µM | TGI (SF-295 CNS): 66 µM | TGI (EKVX NSCLC): 80.4 µM | TGI (M19-MEL melanoma): > 100 µM | TGI (RPMI-8226 leukemia): 50 µM | TGI (MOLT-4 leukemia): > 100 µM | TGI (HT29 colon): 77.1 µM | TGI (KM20L2 colon): > 100 µM | TGI (OVCAR-4 ovarian): > 100 µM | TGI (HOP-18 NSCLC): 98.2 µM | TGI (SK-MEL-5 melanoma): 40.5 µM | TGI (M14 melanoma): > 100 µM | TGI (HOP-62 NSCLC): 87.1 µM | TGI (LXFL 529 NSCLC): > 100 µM | TGI (UACC-62 melanoma): > 100 µM | TGI (HCT-15 colon): > 100 µM | TGI (CCRF-CEM leukemia): > 100 µM | TGI (MALME-3M melanoma): > 100 µM | TGI (IGROV1 ovarian): > 100 µM | TGI (A498 renal): 58.1 µM | TGI (UACC-257 melanoma): 92.6 µM | TGI (KM12 colon): 96.6 µM | TGI (NCI-H460 lung): 55.4 µM | TGI (LOX IMVI melanoma): > 100 µM | TGI (DMS 273 small cell lung): > 100 µM | TGI (SNB-19 CNS): > 100 µM | TGI (SF-268 CNS): > 100 µM | TGI (HL-60(TB) leukemia): 57.3 µM | TGI (CAKI-1 renal): > 100 µM | TGI (ACHN renal): > 100 µM | TGI (OVCAR-3 ovarian): 47.5 µM | TGI (UO-31 renal): > 100 µM | TGI (NCI-H226 lung): > 100 µM | TGI (786-0 renal): 33.9 µM | TGI (A549 NSCLC): > 100 µM | TGI (SK-OV-3 ovarian): 89 µM | TGI (SK-MEL-2 melanoma): 65.4 µM | TGI (NCI-H23 lung): > 100 µM | TGI (TK-10 renal): > 100 µM | TGI (COLO 205 colon): 37 µM | TGI (SF-539 CNS): 41.1 µM | TGI (U251 CNS): 49.4 µM | TGI (SW-620 colon): > 100 µM | TGI (HOP-92 NSCLC): > 100 µM | TGI (SNB-78 CNS): > 100 µM | TGI (SK-MEL-28 melanoma): > 100 µM | TGI (K-562 leukemia): > 100 µM | TGI (NCI-H522 lung): 35 µM | TGI (OVCAR-5 ovarian): 54.6 µM
